The results in this text go back to US11447465B2, “Pharmaceutical compounds for treatment of medical disorders” (Achillion Pharmaceuticals, Inc., priority 2017, dated 2022).

The target of this assay is Human Factor D (Homo sapiens (Human), UniProt P00746). Nature of the assay: Human Factor D Assay. The format is biochemical. As to conditions: Table 7; read-out: IC5 (Stars). The procedure, abridged:
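Serum-purified human factor D (80 nM final) preincubated with compound 5 min at room temperature in 50 mM Tris, 1 M NaCl, pH 7.5. Z-L-Lys-SBzl and DTNB added at 100 μM each; A405 followed every 30 s for 30 min. IC50 by nonlinear regression of rates.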

Structures are written as SMILES.

Chain of Human Factor D (P00746 26-253): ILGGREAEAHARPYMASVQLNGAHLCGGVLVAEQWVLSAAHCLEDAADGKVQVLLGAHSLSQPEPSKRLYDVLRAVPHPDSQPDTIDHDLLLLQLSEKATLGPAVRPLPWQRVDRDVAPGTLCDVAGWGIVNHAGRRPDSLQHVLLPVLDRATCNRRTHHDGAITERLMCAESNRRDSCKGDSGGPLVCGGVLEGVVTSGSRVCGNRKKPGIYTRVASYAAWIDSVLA

For the molecule `CC(=O)c1nn(CC(=O)N2[C@H](C(=O)Nc3nc(Br)ccc3C)C[C@@]3(Cn4cc(C5CC5)nn4)C[C@@H]23)c2cnccc12` [Compound T-83, (1R,3S,5R)-2-(2-(3-acetyl-1H-pyrazolo[3,4-c]pyridin-1-yl)acetyl)-N-(6-bromo-3-methylpyridin-2-yl)-5-((4-cyclopropyl-1H-1,2,3-triazol-1-yl)methyl)-2-azabicyclo[3.1.0]hexane-3-carboxamide], the IC50 was below 1000 nM.

On to `CC(=O)c1nn(CC(=O)N2[C@H](C(=O)Nc3nc(Br)ccc3C)C[C@@]3(C)C[C@@H]23)c2cc3sc(C)nc3cc12` [Compound T-84, (1R,3S,5R)-2-(2-(3-acetyl-6-methyl-1H-thiazolo[4,5-f]indazol-1-yl)acetyl)-N-(6-bromo-3-methylpyridin-2-yl)-5-methyl-2-azabicyclo[3.1.0]hexane-3-carboxamide], for which the IC50 is below 1000 nM.

Regarding `CC(=O)c1nn(CC(=O)N2[C@H](C(=O)Nc3nc(Br)ccc3C)C[C@@]3(CNC(=O)COCCOCCNC(=O)COCCOCCNC(=O)CC[C@H](NC(=O)CCCCCCCCCCCCCCCCC(=O)O)C(=O)O)C[C@@H]23)c2ccccc12` [Compound T-85, (S)-1-((1R,3S,5R)-2-(2-(3-acetyl-1H-indazol-1-yl)acetyl)-3-((6-bromo-3-methylpyridin-2-yl)carbamoyl)-2-azabicyclo[3.1.0]hexan-5-yl)-24-carboxy-3,12,21,26-tetraoxo-5,8,14,17-tetraoxa-2,11,20,25-tetraazatritetracontan-43-oic acid], the IC50 was below 1000 nM.

Take `Cc1ccc(Br)nc1NC(=O)[C@@H]1C[C@@]2(C)C[C@H]2N1C(=O)Cn1nc(N2CCCC2=O)c2ccncc21` [Compound T-86, (1R,3S,5R)-N-(6-bromo-3-methylpyridin-2-yl)-5-methyl-2-(2-(3-(2-oxopyrrolidin-1-yl)-1H-pyrazolo[3,4-c]pyridin-1-yl)acetyl)-2-azabicyclo[3.1.0]hexane-3-carboxamide]: the IC50 is above 10000 nM.

Consider `Cc1ccc(Br)nc1NC(=O)[C@@H]1C[C@@]2(C)C[C@H]2N1C(=O)Cn1nc(N2CCC2=O)c2ccncc21` [Compound T-87, (1R,3S,5R)-N-(6-bromo-3-methylpyridin-2-yl)-5-methyl-2-(2-(3-(2-oxoazetidin-1-yl)-1H-pyrazolo[3,4-c]pyridin-1-yl)acetyl)-2-azabicyclo[3.1.0]hexane-3-carboxamide], for which the IC50 was below 1000 nM.

In the case of `Cc1ccc(Br)nc1NC(=O)[C@@H]1C[C@@]2(C)C[C@H]2N1C(=O)Cn1nc(NCCC(=O)O)c2ccncc21` [Compound T-89, 3-((1-(2-((1R,3S,5R)-3-((6-bromo-3-methylpyridin-2-yl)carbamoyl)-5-methyl-2-azabicyclo[3.1.0]hexan-2-yl)-2-oxoethyl)-1H-pyrazolo[3,4-c]pyridin-3-yl)amino)propanoic acid], the IC50 was above 10000 nM.

For `Cc1ccc(Br)nc1NC(=O)C1CC2(C)CC2N1C(=O)Cn1nc(NCCC(=O)O)c2ccncc21` (centres unmarked) [Compound T-90, 3-((1-(2-(3-((6-bromo-3-methylpyridin-2-yl)carbamoyl)-5-methyl-2-azabicyclo[3.1.0]hexan-2-yl)-2-oxoethyl)-1H-pyrazolo[3,4-c]pyridin-3-yl)amino)propanoic acid], the IC50 was above 10000 nM.

Take `Cc1ccc(Br)nc1NC(=O)[C@@H]1C[C@@]2(C)C[C@H]2N1C(=O)Cc1cccc(-c2nnn[nH]2)c1` [Compound T-91, (1R,3S,5R)-2-(2-(3-(1H-tetrazol-5-yl)phenyl)acetyl)-N-(6-bromo-3-methylpyridin-2-yl)-5-methyl-2-azabicyclo[3.1.0]hexane-3-carboxamide]: the IC50 was above 10000 nM.

Consider `CC(=O)c1nn(CC(=O)N2[C@H](C(=O)Nc3nc(Br)ccc3C)C[C@@]3(C)C[C@@H]23)c2ccc(Nc3cccn(-c4ccccn4)c3=O)cc12` [Compound T-92, (1R,3S,5R)-2-(2-(3-acetyl-5-((2-oxo-2H-[1,2′-bipyridin]-3-yl)amino)-1H-indazol-1-yl)acetyl)-N-(6-bromo-3-methylpyridin-2-yl)-5-methyl-2-azabicyclo[3.1.0]hexane-3-carboxamide], for which the IC50 is below 1000 nM.

Consider `CC(=O)c1nn(CC(=O)N2[C@H](C(=O)Nc3nc(Br)ccc3C)C[C@@]3(C)C[C@@H]23)c2cc3nc(C)oc3cc12` [Compound T-93, (1R,3S,5R)-2-(2-(3-acetyl-6-methyl-1H-oxazolo[5,4-f]indazol-1-yl)acetyl)-N-(6-bromo-3-methylpyridin-2-yl)-5-methyl-2-azabicyclo[3.1.0]hexane-3-carboxamide], for which the IC50 was below 1000 nM.

In the case of `Cc1ccc(Br)nc1NC(=O)[C@@H]1C[C@@]2(C)C[C@H]2N1C(=O)Cc1ccc2[nH]nc(C#N)c2c1` [Compound T-94, (1R,3S,5R)-N-(6-bromo-3-methylpyridin-2-yl)-2-(2-(3-cyano-1H-indazol-5-yl)acetyl)-5-methyl-2-azabicyclo[3.1.0]hexane-3-carboxamide], the IC50 was above 10000 nM.

For `COc1ncc(-c2cccc(CC(=O)N3[C@H](C(=O)Nc4nc(Br)ccc4C)C[C@@]4(C)C[C@@H]34)c2)cn1` [Compound T-95, (1R,3S,5R)-N-(6-bromo-3-methylpyridin-2-yl)-2-(2-(3-(2-methoxypyrimidin-5-yl)phenyl)acetyl)-5-methyl-2-azabicyclo[3.1.0]hexane-3-carboxamide], the IC50 was above 10000 nM.

In the case of `Cc1ccc(Br)nc1NC(=O)[C@@H]1C[C@@]2(C)C[C@H]2N1C(=O)Cc1cccc(-c2cnc(O)nc2)c1` [Compound T-96, (1R,3S,5R)-N-(6-bromo-3-methylpyridin-2-yl)-2-(2-(3-(2-hydroxypyrimidin-5-yl)phenyl)acetyl)-5-methyl-2-azabicyclo[3.1.0]hexane-3-carboxamide], the IC50 was above 10000 nM.

For `COc1cc(CC(=O)N2[C@H](C(=O)Nc3nc(Br)ccc3C)C[C@@]3(C)C[C@@H]23)cc(-c2cnc(OC)nc2)c1` [Compound T-97, (1R,3S,5R)-N-(6-bromo-3-methylpyridin-2-yl)-2-(2-(3-methoxy-5-(2-methoxypyrimidin-5-yl)phenyl)acetyl)-5-methyl-2-azabicyclo[3.1.0]hexane-3-carboxamide], the IC50 fell in the range of 1000 to 10000 nM.

Consider `Cc1ccc(Br)nc1NC(=O)[C@@H]1C[C@@]2(C)C[C@H]2N1C(=O)Cc1ccc2[nH]nc(C(N)=O)c2c1` [Compound T-98, 5-(2-((1R,3S,5R)-3-((6-bromo-3-methylpyridin-2-yl)carbamoyl)-5-methyl-2-azabicyclo[3.1.0]hexan-2-yl)-2-oxoethyl)-1H-indazole-3-carboxamide], for which the IC50 was above 10000 nM.

For the molecule `Cc1ccc(Br)nc1NC(=O)[C@@H]1C[C@@]2(C)C[C@H]2N1C(=O)Cc1ccc2[nH]nc(Cl)c2c1` [Compound T-99, (1R,3S,5R)-N-(6-bromo-3-methylpyridin-2-yl)-2-(2-(3-chloro-1H-indazol-5-yl)acetyl)-5-methyl-2-azabicyclo[3.1.0]hexane-3-carboxamide], the IC50 lay within 1000 to 10000 nM.

As to `Cc1cc2c(s1)c(C(N)=O)nn2CC(=O)N1[C@H](C(=O)Nc2nc(Br)ccc2C)C[C@@]2(CNC(=O)COCCOCCNC(=O)COCCOCCNC(=O)CC[C@H](NC(=O)CCCCCCCCCCCCCCCCC(=O)O)C(=O)O)C[C@@H]12` [Compound T-100, (S)-1-((1R,3S,5R)-3-((6-bromo-3-methylpyridin-2-yl)carbamoyl)-2-(2-(3-carbamoyl-5-methyl-1H-thieno[3,2-c]pyrazol-1-yl)acetyl)-2-azabicyclo[3.1.0]hexan-5-yl)-24-carboxy-3,12,21,26-tetraoxo-5,8,14,17-tetraoxa-2,11,20,25-tetraazatritetracontan-43-oic acid], the IC50 was below 1000 nM.

As to `COc1cc(CC(=O)N2[C@H](C(=O)Nc3nc(Br)ccc3C)C[C@@]3(C)C[C@@H]23)cc(-c2cnc(O)nc2)c1` [Compound T-101, (1R,3S,5R)-N-(6-bromo-3-methylpyridin-2-yl)-2-(2-(3-(2-hydroxypyrimidin-5-yl)-5-methoxyphenyl)acetyl)-5-methyl-2-azabicyclo[3.1.0]hexane-3-carboxamide], the IC50 was below 1000 nM.

Regarding `Cc1ccc(Br)nc1NC(=O)[C@@H]1C[C@@]2(C)C[C@H]2N1C(=O)Cc1ccc2[nH]nc(C(=O)O)c2c1` [Compound T-102, 5-(2-((1R,3S,5R)-3-((6-bromo-3-methylpyridin-2-yl)carbamoyl)-5-methyl-2-azabicyclo[3.1.0]hexan-2-yl)-2-oxoethyl)-1H-indazole-3-carboxylic acid], the IC50 fell in the range of 1000 to 10000 nM.

`CC(=O)c1nn(CC(=O)N2[C@H](C(=O)Nc3nc(Br)ccc3C)C[C@@]3(C)C[C@@H]23)c2cc3nc(C)sc3cc12` [Compound T-103, (1R,3S,5R)-2-(2-(3-acetyl-6-methyl-1H-thiazolo[5,4-f]indazol-1-yl)acetyl)-N-(6-bromo-3-methylpyridin-2-yl)-5-methyl-2-azabicyclo[3.1.0]hexane-3-carboxamide]: the IC50 is below 1000 nM.

Regarding `Cc1ncc(-c2cc(CC(=O)N3C[C@H](F)C[C@H]3C(=O)Nc3cccc(-c4ccccc4Cl)c3F)cc(-c3cnc(C)nc3)c2)cn1` [Compound T-104, (2S,4R)-1-(2-(3,5-bis(2-methylpyrimidin-5-yl)phenyl)acetyl)-N-(2′-chloro-2-fluoro-[1,1′-biphenyl]-3-yl)-4-fluoropyrrolidine-2-carboxamide], the IC50 was above 10000 nM.

For the molecule `CC(=O)c1cc(CC(=O)N2C[C@H](F)C[C@H]2C(=O)Nc2cccc(Br)n2)cc(-c2cnc(C)nc2)c1` [Compound T-105, (2S,4R)-1-(2-(3-acetyl-5-(2-methylpyrimidin-5-yl)phenyl)acetyl)-N-(6-bromopyridin-2-yl)-4-fluoropyrrolidine-2-carboxamide], the IC50 was below 1000 nM.

Consider `CC(=O)c1cc(CC(=O)N2[C@H](C(=O)Nc3nc(Br)ccc3C)C[C@@]3(C)C[C@@H]23)cc(-c2cnc(C)nc2)c1` [Compound T-106, (1R,3S,5R)-2-(2-(3-acetyl-5-(2-methylpyrimidin-5-yl)phenyl)acetyl)-N-(6-bromo-3-methylpyridin-2-yl)-5-methyl-2-azabicyclo[3.1.0]hexane-3-carboxamide], for which the IC50 was below 1000 nM.
